Assay results as given in US20080160019A1, “SEQUENTIAL COMBINATION THERAPY” (DYAX CORP., priority 2006, published 2008).

Columns and labels:
[1] = tested on: DU145 prostate cancer cells; test: Prostate cancer xenograft model, tumor volume (Example 4); assay type: in vivo, athymic nu/nu mice; settings: bevacizumab alone at 12 mg/kg, Q5d
Experimental: DU145 prostate cancer cells were injected subcutaneously into athymic nu/nu mice and tumors were allowed to form. Animals were assorted into groups of 9-10 mice, then treated with DX-2240 (20 mg/kg by IP injection, […]), an isotype-matched antibody control (A2, 20 mg/kg by IP injection, Q2d), bevacizumab (12 mg/kg by IP injection, […]), DX-2240 20 mg/kg Q2d+bevacizumab (DX-2240 20 mg/kg Q2d+bevacizumab at 12 mg/kg, […], starting at day 25), DX-2240 20 mg/kg Q4d+bevacizumab (DX-2240 20 mg/kg Q4d+bevacizumab at 12 mg/kg, […], starting at day 25), DX-2240 10 mg/kg Q4d+bevacizumab (DX-2240 10 mg/kg Q4d+bevacizumab at 12 mg/kg, […], starting at day 25), DX-2240 5 mg/kg Q4d+bevacizumab (DX-2240 5 mg/kg Q4d+bevacizumab at 12 mg/kg, […], starting at day 25), DX-2240 1 mg/kg Q4d+bevacizumab (DX-2240 1 mg/kg Q4d+bevacizumab at 12 mg/kg, […], starting at day 25), DX-2240+sorafenib (DX-2240 at 20 mg/kg by IP injection, […], sorafenib at 100 mg/kg orally (PO) daily for nine days (QDx9) starting at day 25 and 56), or A2+sorafenib (A2 at 20 mg/kg by IP injection, […], sorafenib 100 mg/kg PO QDx9 starting at day 25 and 56). After day 34, mice in the DX-2240 only and A2 only groups were given an additional agent, and were no longer available as controls for this experiment. Tumor volume was measured twice weekly.

[2] = tested on: BxPC3 (human pancreatic cancer cell line) tumor; test: Pancreatic cancer xenograft model, tumor size by calipers (Example 3); assay type: in vivo, nude mice (nu/nu); settings: as single agents
Experimental: The antitumor activity of combinations of DX-2240 and bevacizumab (anti-VEGF antibody) or sorafenib (multi-kinase inhibitor) were tested in a human tumor xenograft model. BxPC3 (human pancreatic cancer cell line) tumor fragments harvested from host nude mice (nu/nu) bearing subcutaneous BxPC-3 tumors were implanted subcutaneously into female nude mice (study animals) and allowed to form tumors. Mice were pair matched by tumor size and randomized into the various treatment groups when the tumors reached approximately 100 mm^3 (about 18 days following tumor implantation). The animals were assorted into the treatment groups shown in Table 1 (“Start” refers to the day on which treatment was begun). DX-2240 was administered by intraperitoneal (IP) injection at 20 mg/kg; bevacizumab was administered by IP injection at 10 mg/kg, sorafenib was administered orally at 60 mg/kg (for a total of 9 doses), and the control IgG (palivizumab, an antibody of the same isotype as DX-2240) was administered by IP injection at 20 mg/kg at the indicated dosing start dates and dosing regimens. An additional positive control group (group 13) was included: these animals were dosed with gemcitabine at 40 mg/kg Q3d for a total of four doses.
Tumor size was evaluated every three to four days using calipers.

## bevacizumab: anti-VEGF antibody
[1]
  tumor size: tumor shrinkage
[2]
  tumor size as compared to control: reduced tumor size
